Assay [1] deals with T1, ThrC (threonine synthase; ThrC-His6) (Microcystis aeruginosa, UniProt A0AB33BYK2).
T1 construct: gene BH695_2536; full-length thrC (1,304 bp), N-terminal His6 tag from pET-28b(+), E. coli BL21(DE3), Ni-NTA purified; tag cleavage not mentioned
The experiment in a line: yellow colour of purified enzyme; PLP-dependent threonine deamination spectra. Format: binding. Conditions: threonine as substrate; 50 mM PIPES pH 8.0.

Assay [2] concerns the target T1, ThrC (threonine synthase; ThrC-His6). The experiment in a line: in vitro threonine deaminase assay, inhibition. Format: biochemical. To be noted: threonine as substrate; concentration-dependent inhibition.
The target is the same in assay [3]. Briefly: alpha-ketobutyrate formation (semicarbazide / […],4-DNPH), threonine deaminase activity, sigmoidal fit. Format: biochemical. Conditions: 50 mM PIPES pH 8.0, 100 mM KCl, 0.1 mM EDTA, 1 mM DTT, PLP, 25 °C; sigmoidal kinetics.

T1 sequence (A0AB33BYK2 entry or part of it): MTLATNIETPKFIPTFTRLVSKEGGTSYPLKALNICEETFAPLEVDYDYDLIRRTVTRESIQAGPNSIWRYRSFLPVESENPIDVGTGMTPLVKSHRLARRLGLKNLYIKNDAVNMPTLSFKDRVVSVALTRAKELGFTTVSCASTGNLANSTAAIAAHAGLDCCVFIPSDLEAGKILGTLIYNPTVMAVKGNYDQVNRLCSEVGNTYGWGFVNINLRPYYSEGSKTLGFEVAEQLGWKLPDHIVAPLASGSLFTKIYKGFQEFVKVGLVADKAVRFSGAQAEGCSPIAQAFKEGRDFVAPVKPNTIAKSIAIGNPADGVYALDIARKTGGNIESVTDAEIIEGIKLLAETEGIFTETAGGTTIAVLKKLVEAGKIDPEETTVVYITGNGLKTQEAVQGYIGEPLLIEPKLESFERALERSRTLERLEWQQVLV

Consider `Cc1ncc(COP(=O)(O)O)c(C=O)c1O` [PLP], for which the “yellow colour of purified enzyme; PLP-dependent threonine deamination spectra” value in assay [1] is reported as “threonine synthase could utilize PLP as a catalyst to degrade threonine into keto acids”. For the compound `C[C@H](N)C(=O)O` [alanine], the inhibition entry in assay [2] is “alanine and isoleucine, also exhibited concentration-dependent inhibitory activity against aKB-generating deaminases”. On the same count and under the same terms, with `CC[C@H](C)[C@H](N)C(=O)O` [isoleucine] the entry was “alanine and isoleucine, also exhibited concentration-dependent inhibitory activity against aKB-generating deaminases”. With `C[C@@H](O)[C@H](N)C(=O)O` [threonine], the K0.5 entry in assay [3] is on record as “The sigmoidal kinetics of ThrC as a threonine deaminase were analyzed in the presence of threonine”.

Values taken from paper PMC12172450, “Moonlighting activity of threonine synthase in cyanobacterial cell death” (mSystems, 2025).
